Tests used:
Format in all cases: in vivo
[1] = system: Diabrotica balteata (Corn Root Worm); assay: Diabrotica balteata, maize sprouts on agar, L2 larvae; conditions: 96 h, application rate of 200 ppm, 4 days after infestation, read-out: effect in at least one of the two categories (mortality or growth inhibition)
Method: Example B2: Diabrotica balteata (Corn Root Worm)
Maize sprouts placed onto an agar layer in 24-well microtiter plates were treated with aqueous test solutions prepared from 10′000 ppm DMSO stock solutions by spraying. After drying, the plates were infested with L2 larvae (6 to 10 per well). The samples were assessed for mortality and growth inhibition in comparison to untreated samples 4 days after infestation.

[2] = system: Bemisia tabaci (Cotton White Fly); assay: Bemisia tabaci feeding/contact activity, cotton leaf discs; conditions: foliar, 144 h, application rate of 200 ppm, 6 days after incubation, adult white flies
Method: Example B1: Bemisia tabaci (Cotton White Fly): Feeding/Contact Activity
(§1) Cotton leaf discs were placed on agar in 24-well microtiter plates and sprayed with aqueous test solutions prepared from 10′000 ppm DMSO stock solutions. After drying the leaf discs were infested with adult white flies. The samples were checked for mortality 6 days after incubation.

[3] = system: Plutella xylostella (Diamond Back Moth); assay: Plutella xylostella, artificial diet, L2 larvae; conditions: 120 h, application rate of 200 ppm, 5 days after infestation, read-out: effect in at least one of the two categories (mortality or growth inhibition)
Method: Example B7: Plutella xylostella (Diamond Back Moth)
24-well microtiter plates with artificial diet were treated with aqueous test solutions prepared from 10′000 ppm DMSO stock solutions by pipetting. After drying, the plates were infested with L2 larvae (10 to 15 per well). The samples were assessed for mortality and growth inhibition in comparison to untreated samples 5 days after infestation.

[4] = system: Euschistus heros (Neotropical Brown Stink Bug); assay: Euschistus heros, soybean leaves on agar, N2 nymphs; conditions: 120 h, application rate of 200 ppm, 5 days after infestation, read-out: effect in at least one of the two categories (mortality or growth inhibition)
Method: Example B3: Euschistus heros (Neotropical Brown Stink Bug)
Soybean leaves on agar in 24-well microtiter plates were sprayed with aqueous test solutions prepared from 10′000 ppm DMSO stock solutions. After drying the leaves were infested with N2 nymphs. The samples were assessed for mortality and growth inhibition in comparison to untreated samples 5 days after infestation.

[5] = system: Spodoptera littoralis (Egyptian Cotton Leaf Worm); assay: Spodoptera littoralis, cotton leaf discs, L1 larvae; conditions: foliar, 72 h, application rate of 200 ppm, 3 days after infestation
Method: Example B8: Spodoptera littoralis (Egyptian Cotton Leaf Worm)
Cotton leaf discs were placed onto agar in 24-well microtiter plates and sprayed with aqueous test solutions prepared from 10′000 ppm DMSO stock solutions. After drying the leaf discs were infested with five L1 larvae. The samples were assessed for mortality, anti-feeding effect, and growth inhibition in comparison to untreated samples 3 days after infestation. Control of Spodoptera littoralis by a test sample is given when at least one of the categories mortality, anti-feedant effect, and growth inhibition is higher than the untreated sample.

[6] = system: Thrips tabaci (Onion Thrips); assay: Thrips tabaci feeding/contact activity, sunflower leaf discs; conditions: foliar, 144 h, application rate of 200 ppm, 6 days after infestation
Method: Example B11: Thrips tabaci (Onion Thrips) Feeding/Contact Activity
as §1, with “Sunflower” for “Cotton”, “a thrips population of mixed ages.” for “adult white flies.”, “assessed” for “checked”, “infestation.” for “incubation.”

[7] = system: Myzus persicae (Green Peach Aphid); assay: Myzus persicae feeding/contact activity, sunflower leaf discs; conditions: foliar, 144 h, application rate of 200 ppm, 6 days after infestation
Method: Example B5: Myzus persicae (Green Peach Aphid): Feeding/Contact Activity
Sunflower leaf discs were placed onto agar in a 24-well microtiter plate and sprayed with aqueous test solutions prepared from 10′000 ppm DMSO stock solutions. After drying, the leaf discs were infested with an aphid population of mixed ages. The samples were assessed for mortality 6 days after infestation.

[8] = system: Myzus persicae (Green Peach Aphid); assay: Myzus persicae systemic activity, pea seedling roots in test solution; conditions: 144 h, test rate of 24 ppm, 6 days after placing seedlings into test solutions
Method: Example B6: Myzus persicae (Green Peach Aphid): Systemic Activity
Roots of pea seedlings infested with an aphid population of mixed ages were placed directly into aqueous test solutions prepared from 10′000 DMSO stock solutions. The samples were assessed for mortality 6 days after placing seedlings into test solutions.

[9] = system: Spodoptera littoralis (Egyptian Cotton Leaf Worm); assay: Spodoptera littoralis, uptake by lettuce roots from agar, eggs; conditions: 144 h, test rate of 12.5 ppm, 6 days after infestation, read-out: effect in at least one of the three categories (mortality, anti-feeding, or growth inhibition)
From the text: Example B9: Spodoptera littoralis (Egyptian Cotton Leaf Worm)
Test compounds were applied by pipette from 10′000 ppm DMSO stock solutions into 24-well plates and mixed with agar. Lettuce seeds were placed onto the agar and the multi well plate was closed by another plate which contained also agar. After 7 days the compound was absorbed by the roots and the lettuce grew into the lid plate. The lettuce leaves were then cut off into the lid plate. Spodoptera eggs were pipetted through a plastic stencil onto a humid gel blotting paper and the lid plate was closed with it. The samples were assessed for mortality, anti-feedant effect and growth inhibition in comparison to untreated samples 6 days after infestation.

[10] = system: Tetranychus urticae (Two-Spotted Spider Mite); assay: Tetranychus urticae feeding/contact activity, bean leaf discs; conditions: foliar, 192 h
Method: Example B10: Tetranychus urticae (Two-Spotted Spider Mite): Feeding/Contact Activity
Bean leaf discs on agar in 24-well microtiter plates were sprayed with aqueous test solutions prepared from 10′000 ppm DMSO stock solutions. After drying the leaf discs were infested with a mite population of mixed ages. The samples were assessed for mortality on mixed population (mobile stages) 8 days after infestation.

[11] = system: Frankliniella occidentalis (Western Flower Thrips); assay: Frankliniella occidentalis feeding/contact activity, sunflower leaf discs; conditions: foliar, 168 h, application rate of 200 ppm, 7 days after infestation, population of mixed ages
Method: Example B4: Frankliniella occidentalis (Western Flower Thrips): Feeding/Contact Activity
Sunflower leaf discs were placed on agar in 24-well microtiter plates and sprayed with aqueous test solutions prepared from […] stock solutions. After drying the leaf discs were infested with a Frankliniella population of mixed ages. The samples were assessed for mortality 7 days after infestation.

CCn1c(C(F)(F)F)cc2nc(-c3nc(-n4ccc(C(F)(F)F)n4)ccc3S(=O)(=O)CC)n(C)c2c1=O [Compound P3, 5-ethyl-2-[3-ethylsulfonyl-6-[3-(trifluoromethyl)pyrazol-1-yl]-2-pyridyl]-3-methyl-6-(trifluoromethyl)imidazo[4,5-c]pyridin-4-one]
≥ 80%: percent effect (mortality or growth inhibition) at 200 ppm [1] | mortality at 200 ppm [2] | percent effect (mortality or growth inhibition) at 200 ppm [3] | percent effect (mortality or growth inhibition) at 200 ppm [4] | percent control (mortality, anti-feedant effect or growth inhibition) at 200 ppm [5]

CCS(=O)(=O)c1ccc(-n2cncn2)nc1-c1nc2cc(C(F)(F)F)n(C3CC3)c(=O)c2n1C [Compound P4, 5-cyclopropyl-2-[3-ethylsulfonyl-6-(1,2,4-triazol-1-yl)-2-pyridyl]-3-methyl-6-(trifluoromethyl)imidazo[4,5-c]pyridin-4-one]
≥ 80%: percent effect (mortality or growth inhibition) at 200 ppm [1] | mortality at 200 ppm [2] | mortality at 200 ppm [6] | mortality at 200 ppm [7] | percent effect (mortality or growth inhibition) at 200 ppm [3] | mortality at 24 ppm [8] | percent effect (mortality, anti-feeding or growth inhibition) at 12.5 ppm [9] | mortality at 200 ppm [10] | percent effect (mortality or growth inhibition) at 200 ppm [4] | percent control (mortality, anti-feedant effect or growth inhibition) at 200 ppm [5]

CCn1c(C(F)(F)F)cc2nc(-c3nc(-n4cncn4)ccc3S(=O)(=O)CC)n(C)c2c1=O [Compound P5]
≥ 80%: percent effect (mortality or growth inhibition) at 200 ppm [1] | mortality at 200 ppm [2] | mortality at 200 ppm [6] | mortality at 200 ppm [7] | percent effect (mortality or growth inhibition) at 200 ppm [3] | mortality at 24 ppm [8] | percent effect (mortality, anti-feeding or growth inhibition) at 12.5 ppm [9] | percent effect (mortality or growth inhibition) at 200 ppm [4] | percent control (mortality, anti-feedant effect or growth inhibition) at 200 ppm [5]

CCn1c(C(F)(F)F)cc2nc(-c3nc(C4CC4)ccc3S(=O)(=O)CC)n(C)c2c1=O [Compound P11]
≥ 80%: mortality at 200 ppm [2]

CCn1c(C(F)(F)F)cc2nc(-c3nc(-c4ccncc4)ccc3S(=O)(=O)CC)n(C)c2c1=O [Compound P13]
≥ 80%: percent effect (mortality or growth inhibition) at 200 ppm [1] | percent effect (mortality or growth inhibition) at 200 ppm [3] | mortality at 200 ppm [11] | percent control (mortality, anti-feedant effect or growth inhibition) at 200 ppm [5]

CCn1c(C(F)(F)F)cc2nc(-c3nc(-c4cccc(F)c4)ccc3S(=O)(=O)CC)n(C)c2c1=O [Compound P14]
≥ 80%: percent effect (mortality or growth inhibition) at 200 ppm [1] | mortality at 200 ppm [2] | mortality at 200 ppm [7] | percent effect (mortality or growth inhibition) at 200 ppm [3] | percent effect (mortality, anti-feeding or growth inhibition) at 12.5 ppm [9] | percent effect (mortality or growth inhibition) at 200 ppm [4] | percent control (mortality, anti-feedant effect or growth inhibition) at 200 ppm [5]

CCn1c(C(F)(F)F)cc2nc(-c3nc(-c4ccc(C(F)(F)F)nc4)ccc3S(=O)(=O)CC)n(C)c2c1=O [Compound P16]
≥ 80%: percent effect (mortality or growth inhibition) at 200 ppm [1] | mortality at 200 ppm [2] | mortality at 200 ppm [7] | percent effect (mortality or growth inhibition) at 200 ppm [3] | percent effect (mortality or growth inhibition) at 200 ppm [4] | mortality at 200 ppm [11] | percent control (mortality, anti-feedant effect or growth inhibition) at 200 ppm [5]

CCn1c(C(F)(F)F)cc2nc(-c3nc(-c4cnc(OC)nc4)ccc3S(=O)(=O)CC)n(C)c2c1=O [Compound P20]
≥ 80%: percent effect (mortality or growth inhibition) at 200 ppm [1] | mortality at 200 ppm [7] | percent effect (mortality or growth inhibition) at 200 ppm [3] | percent effect (mortality, anti-feeding or growth inhibition) at 12.5 ppm [9] | percent effect (mortality or growth inhibition) at 200 ppm [4] | mortality at 200 ppm [11] | percent control (mortality, anti-feedant effect or growth inhibition) at 200 ppm [5]

CCn1c(C(F)(F)F)cc2nc(-c3nc(-c4cncnc4)ccc3S(=O)(=O)CC)n(C)c2c1=O [Compound P21]
≥ 80%: percent effect (mortality or growth inhibition) at 200 ppm [1] | mortality at 200 ppm [2] | mortality at 200 ppm [7] | percent effect (mortality or growth inhibition) at 200 ppm [3] | percent effect (mortality, anti-feeding or growth inhibition) at 12.5 ppm [9] | percent effect (mortality or growth inhibition) at 200 ppm [4] | percent control (mortality, anti-feedant effect or growth inhibition) at 200 ppm [5]

CCn1c(C(F)(F)F)cc2nc(-c3nc(-c4cncn4C)ccc3S(=O)(=O)CC)n(C)c2c1=O [Compound P28]
≥ 80%: percent effect (mortality or growth inhibition) at 200 ppm [1] | mortality at 200 ppm [2] | percent effect (mortality or growth inhibition) at 200 ppm [3] | percent control (mortality, anti-feedant effect or growth inhibition) at 200 ppm [5]

CCn1c(C(F)(F)F)cc2nc(-c3nc(-c4cccc(SC)c4)ccc3S(=O)(=O)CC)n(C)c2c1=O [Compound P29]
≥ 80%: percent effect (mortality or growth inhibition) at 200 ppm [1] | mortality at 200 ppm [2] | mortality at 200 ppm [7] | percent effect (mortality or growth inhibition) at 200 ppm [3] | percent effect (mortality or growth inhibition) at 200 ppm [4] | percent control (mortality, anti-feedant effect or growth inhibition) at 200 ppm [5]

CCn1c(C(F)(F)F)cc2nc(-c3nc(-c4cc(F)ccc4F)ccc3S(=O)(=O)CC)n(C)c2c1=O [Compound P37]
≥ 80%: percent effect (mortality or growth inhibition) at 200 ppm [1] | mortality at 200 ppm [2] | percent effect (mortality or growth inhibition) at 200 ppm [3] | percent effect (mortality, anti-feeding or growth inhibition) at 12.5 ppm [9] | percent effect (mortality or growth inhibition) at 200 ppm [4] | percent control (mortality, anti-feedant effect or growth inhibition) at 200 ppm [5]

CCn1c(C(F)(F)F)cc2nc(-c3nc(-c4cnco4)ccc3S(=O)(=O)CC)n(C)c2c1=O [Compound P38]
≥ 80%: percent effect (mortality or growth inhibition) at 200 ppm [1] | mortality at 200 ppm [7] | percent effect (mortality or growth inhibition) at 200 ppm [3] | mortality at 24 ppm [8] | percent control (mortality, anti-feedant effect or growth inhibition) at 200 ppm [5]

— patent US10745396B2, “Pesticidally active polycyclic derivatives with sulfur containing substituents” (Syngenta Participations AG, priority 2015, dated 2020)
